Structures are written as SMILES.

The target of series [1] is T1, Aβ42 (Homo sapiens, UniProt P05067).
T1 construct: purchased rPeptide (USA)
The experiment in a line: CD spectroscopy of Aβ42 aggregated with the tested molecules. As to conditions: 5-fold molar excess of compound. How it is done: The blank was subtracted from the acquired CD spectra. For the CD study in the presence of the tryptophan-galacosylamine molecules, the spectra of hybrid molecules were also recorded separately and subtracted from the respective sample spectra. The normalized data were plotted using Origin pro 2015 software.

The target in series [2] is T1, Aβ42. The experiment in a line: TEM of Aβ42 fibrils formed with the tested molecules. As to conditions: 5-fold excess of compound. The method, then: These fibrils also generated the amyloid specific gold-green birefringence upon staining with Congo red (Fig. 3, bottom panel and Supplementary Fig. 6)[74].
(§1) Samples (10 µL) were placed for 2 min on 400-mesh copper grids covered with carbon-stabilized Formvar film (Electron Microscopy Sciences (EMS), Hatfield, PA). Excess fluid was removed, and grids were negatively stained with 2% uranyl acetate solution (10 µL) for 2 min. After excess fluid removal, the samples were visualized using a JEM-1400 TEM (JEOL), operated at 80 kV.

In another series the target is T2, hIAPP (Homo sapiens, UniProt P10997).
T2 construct: hIAPP is a 37-amino acid neuroendocrine peptide hormone; purchased Peptide 2.0 (USA)
T2 sequence (P10997 34-70 limits assumed): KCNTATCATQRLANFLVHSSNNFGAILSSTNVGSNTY
The experiment in a line: TEM of hIAPP fibrils formed with the tested molecules. Conditions: 5-fold molar excess of compound. The method, then: When hIAPP was incubated with 5-fold molar excess of the hybrid molecules, no typical fibrillar assemblies were observed, rather some amorphous aggregates of different sizes were detected (Fig. 4, upper panel).
as §1

Series [3] can be described thus: XTT assay, cytotoxicity of the hybrid molecules towards SH-SY5Y. The class given is cell-based. Conditions: human, SH-SY5Y cells. How it is done: (§2) To this end, we first tested whether the hybrid molecules carried any cytotoxicity themselves. […] No considerable toxicity (≥95% viability) was caused by the hybrid molecules towards either cell line, even at the highest concentration of 250 µM (Fig. 8).
(§3) The SH-SY5Y and HEK-293 cell lines (2 × 10^5 cells/mL) were cultured in 96-well tissue microplates (100 µL/well) and allowed to adhere overnight at 37 °C. The conjugate molecules were dissolved in DMEM:nutrient mixture F12 (Ham’s) (1:1) (Biological Industries, Israel) at different concentrations. The negative control was prepared as medium without hybrid molecules and treated in the same manner. 100 µL of medium with or without hybrid molecules were added to each well in triplicate. Following incubation for 24 h at 37 °C, cell viability was evaluated using the 2,3-bis(2-methoxy-4-nitro-5-sulfophenyl)-2H-tetrazolium-5-carboxanilide (XTT) cell proliferation assay kit (Biological Industries, Israel) according to the manufacturer’s instructions. Briefly, 100 µL of activation reagent was added to 5 mL of XTT reagent, followed by the addition of 50 µL of activated-XTT solution to each well. After 2 h incubation at 37 °C, color intensity was measured using an ELISA microplate reader at 450 nm and 630 nm. Results are presented as mean and mean standard error. Each experiment was repeated minimum three times.

The nature of series [4]: XTT assay, cytotoxicity of the hybrid molecules towards HEK-293. As to conditions: human, HEK-293 cells. It counts as cell-based. The method, then:
as §2, §3

The test system of series [5] is HEK-293 cells exposed to pre-formed hIAPP fibrils. The experiment in a line: XTT assay, reduction of hIAPP-induced cytotoxicity in HEK-293. The class given is cell-based. Conditions: Homo sapiens. How it is done: The peptide assemblies were then incubated for further 24 h with SH-SY5Y or HEK-293 cells and cell viability was monitored by XTT assay (Fig. 9). […] The mixtures were then independently applied to the respective cells for 24 h, and cell viability was further measured by XTT assay (Fig. 10a).
as §3
For the quantitative data derived from ThT and XTT assays, statistical significance, expressed as p-value, was determined using Student’s t-test calculation applied at the end of the experiments, setting tails to 2 (tailed distribution) and type to 2 (samples equal variance), according to reported methods. From the XTT viability assays, EC50 and Emax values were determined from the dose-response curves of each tested molecule using non-linear least-square data fitting, according to literature.

T1 sequence (P05067 672-713 limits assumed): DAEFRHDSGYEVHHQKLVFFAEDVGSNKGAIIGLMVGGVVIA

Turning to `NC(Cc1c[nH]c2ccccc12)C(=O)NC(Cc1c[nH]c2ccccc12)C(=O)O` (centres unmarked) [WW], the “effect on Aβ42 secondary structure (CD), in words” value on Aβ42 [1] was “No significant variation”. In addition, the “Aβ42 fibril morphology (TEM), in words” value at Aβ42 [2] is listed as “did not display any effect”. In addition, the “hIAPP fibril morphology (TEM), in words” value at hIAPP is “clearly visible in a more densely packed network”. Also, the viability at 24 h, 0.2 µM in series [3] (0.2µM) came to 98.8%; in series [4] (0.2µM), 93.6%. Also, the figures for the viability at 24 h, 1 µM in series [3] (1 µM) and in series [4] (1 µM) were 100% and 98.4%, respectively. The figures for the viability at 24 h, 10 µM in series [3] (10 µM) and in series [4] (10 µM) were 98.4% and 94.3%, respectively. For the same compound, the viability at 24 h, 50 µM in series [3] (50 µM) came to 90.9%; in series [4] (50 µM), 84.5%. In addition, the viability at 24 h, 250 µM in series [3] is 88.4%; in series [3] (SH-SY5Y, 24 h) it was roughly 88%; in series [4] (250 µM) it was 83.7%; in series [4] (HEK-293, 250 µM, 24 h), roughly 83%. Moreover, the viability at 10 µM in series [5] (HEK293, hIAPP (10 µM) : molecule 1:1, HEK-293 cells, normalized XTT data) came to 55.2%. For the same compound, the viability at 50 µM in series [5] (HEK293, hIAPP (10 µM) : molecule 1:5, HEK-293 cells, normalized XTT data) was 57.7%. Further, the viability at 200 µM in series [5] (HEK293, hIAPP (10 µM) : molecule 1:20, HEK-293 cells, normalized XTT data) worked out at 58.5%. This compound returned a viability at 2 µM in series [5] (HEK293, hIAPP (10 µM) : molecule 5:1, HEK-293 cells, normalized XTT data) of 55.6%. In series [5] (HEK293, reduction of cytotoxicity of pre-formed hIAPP fibrils 10 µM, HEK-293), the half-maximal effective concentration (EC50) was 10 µM.
